# “Also recorded” adds a separate entry of the source.
# How the values were obtained:
# [1] = system: ACP-induced hepatotoxicity; assay: Protection from ACP-induced hepatotoxicity in mice (plasma ALT levels); format: in vivo, Male Swiss-Webster mice
# Protocol: Male Swiss-Webster mice weighing 24-34 g were administered ACP [360 mg (or 2.45 mmol)/kg, i.p.].
# In protocol 4′B, a priming dose of the prodrug (1.25 mmole/kg, i.p.) was administered 60 min prior to ACP followed by a subsequent dose (2.50 mmol/kg) 30 min post-ACP.
# In protocol 3′B, the pre- and post-ACP doses were reversed.
# In protocol 1, a single dose of drug was administered 30 min post-ACP.
# Protocol 1′ is identical to 3′B except that the pH of the injection solution was not adjusted. In the B series, the pH of the injection solution was adjusted to neutrality with dilute, aqueous NaOH or HCl
# [2] = unlike GSH or its carboxy esters with free -SH groups that are subject to oxidation; refs (9, 17); cited from earlier work
compound,measurement,setting,value
"CCOC(=O)CNC(=O)C(CSC(C)=O)NC(=O)CCC(N)C(=O)O (stereo not shown) [S-Ac-GSH-OEt, S-acetylglutathione ethyl ester]",usefulness for treating/preventing oxidative stress in the mouse model,"[1]; FIGS. 1, 3 and 4",useful for treating oxidative stress
"N[C@@H](CCC(=O)N[C@@H](CSSC[C@H](N)C(=O)O)C(=O)NCC(=O)O)C(=O)O [L-CySSG, L-cysteine-GSH disulfide]",stability,[2],stable
N[C@H](CSSC[C@H](NC(=O)CC[C@H](N)C(=O)O)C(=O)NCC(=O)O)C(=O)O [D-CySSG],hepatoprotection against ACP toxicity,"[1]; FIG. 1, mouse model, protocol 4'B",lack of significant activity; also recorded: not hepatoprotective; also recorded: lack of hepatoprotection
same,plasma alanine aminotransferase (ALT) levels of ACP-treated mice,"[1]; FIG. 1, protocol 4'B: prodrug 1.25 mmole/kg i.p. 60 min prior to ACP, 2.50 mmol/kg 30 min post-ACP, ACP 360 mg/kg i.p., ALT 24 hrs post-ACP",statistically similar to that for ACP alone; also recorded: comparable to that for ACP alone

# From patent US9173917B2, “Methods for reducing oxidative stress in a cell with a sulfhydryl protected glutathione prodrug” (Max International, LLC, priority 2003, dated 2015)
